Test results published in ChEMBL document CHEMBL4507291 (2021).

Columns and labels:
[1] = target: ATP-sensitive inward rectifier potassium channel 11 (Cricetulus griseus) (UniProt A0A3L7HHE1); assay: Inhibition of Potassium Channel [KATP] at 10 µM in the Eurofins-Panlabs radioligand binding assay (Eurofins_assay_265600); settings: Cricetinae; Compound concentration 10.0 uM
[2] = target: Mitogen-activated protein kinase 3 (Homo sapiens) (UniProt P27361); assay: Inhibition of Protein Serine/Threonine Kinase, MAPK3 (ERK1) at 10 µM in the Eurofins-Panlabs enzyme assay (Eurofins_assay_171000); settings: Compound concentration 10.0 uM
[3] = target: Cholecystokinin receptor type A (Homo sapiens) (UniProt P32238); assay: Inhibition of Cholecystokinin CCK1 (CCKA) at 10 µM in the Eurofins-Panlabs radioligand binding assay (Eurofins_assay_218020); settings: Compound concentration 10.0 uM
[4] = target: 5-hydroxytryptamine receptor 6 (Homo sapiens) (UniProt P50406); assay: Inhibition of Serotonin (5-Hydroxytryptamine) 5-HT6 at 10 µM in the Eurofins-Panlabs radioligand binding assay (Eurofins_assay_272200); settings: Compound concentration 10.0 uM
[5] = target: Vasoactive intestinal polypeptide receptor 1 (Homo sapiens) (UniProt P32241); assay: Inhibition of Vasoactive Intestinal Peptide VIP1 at 10 µM in the Eurofins-Panlabs radioligand binding assay (Eurofins_assay_287010); settings: Compound concentration 10.0 uM
[6] = target: Activin receptor type-2B (Homo sapiens) (UniProt Q13705); assay: ACVR2B Kinase screen; settings: Compound concentration 1.0 uM
[7] = target: Bone morphogenetic protein receptor type-1A (Homo sapiens) (UniProt P36894); assay: BMPR1A (ALK3) Kinase screen; settings: Compound concentration 1.0 uM
[8] = target: Calcium/calmodulin-dependent protein kinase type 1D (Homo sapiens) (UniProt Q8IU85); assay: CAMK1D (CaMKI delta) Kinase screen; settings: Compound concentration 1.0 uM
[9] = target: Casein kinase I isoform delta (Homo sapiens) (UniProt P48730); assay: CSNK1D (CK1 delta) Kinase screen; settings: Compound concentration 1.0 uM
[10] = target: Casein kinase I isoform gamma-1 (Homo sapiens) (UniProt Q9HCP0); assay: CSNK1G1 (CK1 gamma 1) Kinase screen; settings: Compound concentration 1.0 uM
[11] = target: Receptor tyrosine-protein kinase erbB-2 (Homo sapiens) (UniProt P04626); assay: ERBB2 (HER2) Kinase screen; settings: Compound concentration 1.0 uM
[12] = target: Fibroblast growth factor receptor 3 (Homo sapiens) (UniProt P22607); assay: FGFR3 Kinase screen; settings: Compound concentration 1.0 uM
[13] = target: Receptor-type tyrosine-protein kinase FLT3 (Homo sapiens) (UniProt P36888); assay: FLT3 Kinase screen; settings: Compound concentration 1.0 uM
[14] = target: G protein-coupled receptor kinase 5 (Homo sapiens) (UniProt P34947); assay: GRK5 Kinase screen; settings: Compound concentration 1.0 uM
[15] = target: Tyrosine-protein kinase HCK (Homo sapiens) (UniProt P08631); assay: HCK Kinase screen; settings: Compound concentration 1.0 uM
[16] = target: Insulin-like growth factor 1 receptor (Homo sapiens) (UniProt P08069); assay: IGF1R Kinase screen; settings: Compound concentration 1.0 uM
[17] = test system: Dual specificity mitogen-activated protein kinase kinase 1 (Homo sapiens), Q02750 [S218D,S222D]; assay: MAP2K1 (MEK1) S218D S222D Kinase screen; settings: Compound concentration 1.0 uM
[18] = target: Protein-tyrosine kinase 2-beta (Homo sapiens) (UniProt Q14289); assay: PTK2B (FAK2) Kinase screen; settings: Compound concentration 1.0 uM
[19] = target: T1, Serine/threonine-protein kinase 17A (Homo sapiens) (UniProt Q9UEE5); assay: STK17A (DRAK1) Kinase screen; settings: Compound concentration 1.0 uM
T1 sequence (whole entry): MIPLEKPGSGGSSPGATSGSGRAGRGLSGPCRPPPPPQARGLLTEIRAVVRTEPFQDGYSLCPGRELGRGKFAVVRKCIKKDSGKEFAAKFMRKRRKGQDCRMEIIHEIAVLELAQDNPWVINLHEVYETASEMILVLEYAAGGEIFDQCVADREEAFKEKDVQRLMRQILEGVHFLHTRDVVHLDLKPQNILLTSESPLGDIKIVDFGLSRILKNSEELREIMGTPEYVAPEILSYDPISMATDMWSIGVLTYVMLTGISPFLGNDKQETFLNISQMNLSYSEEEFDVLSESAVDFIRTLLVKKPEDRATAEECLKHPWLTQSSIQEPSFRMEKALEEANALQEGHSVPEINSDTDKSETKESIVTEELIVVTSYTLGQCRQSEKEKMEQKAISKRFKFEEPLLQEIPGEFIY

[20] = target: T2, Tyrosine-protein kinase Tec (Homo sapiens) (UniProt P42680); assay: TEC Kinase screen; settings: Compound concentration 1.0 uM
T2 sequence (whole entry): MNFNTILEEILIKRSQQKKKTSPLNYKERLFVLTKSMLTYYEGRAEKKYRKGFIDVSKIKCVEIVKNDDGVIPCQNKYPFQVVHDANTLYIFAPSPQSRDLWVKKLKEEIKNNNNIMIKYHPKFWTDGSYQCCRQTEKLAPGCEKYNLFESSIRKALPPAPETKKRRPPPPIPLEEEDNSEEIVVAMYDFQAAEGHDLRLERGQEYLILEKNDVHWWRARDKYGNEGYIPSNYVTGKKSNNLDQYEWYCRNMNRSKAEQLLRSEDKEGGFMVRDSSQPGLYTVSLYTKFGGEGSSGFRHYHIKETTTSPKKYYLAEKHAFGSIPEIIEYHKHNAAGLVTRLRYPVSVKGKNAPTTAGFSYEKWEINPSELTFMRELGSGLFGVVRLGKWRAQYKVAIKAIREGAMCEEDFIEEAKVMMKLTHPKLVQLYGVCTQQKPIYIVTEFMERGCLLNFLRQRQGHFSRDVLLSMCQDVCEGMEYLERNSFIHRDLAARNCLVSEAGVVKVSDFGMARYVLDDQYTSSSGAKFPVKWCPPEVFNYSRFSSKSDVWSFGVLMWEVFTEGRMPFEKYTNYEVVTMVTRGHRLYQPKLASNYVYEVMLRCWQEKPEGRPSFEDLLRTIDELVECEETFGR

[21] = target: Angiopoietin-1 receptor (Homo sapiens) (UniProt Q02763); assay: TEK (Tie2) Kinase screen; settings: Compound concentration 1.0 uM
[22] = target: Corticotropin-releasing factor receptor 1 (Homo sapiens) (UniProt P34998); assay: Corticotropin Releasing Factor CRF1 Eurofins-Panlabs radioligand binding assay; settings: Compound concentration 10.0 uM
[23] = target: Prostaglandin E2 receptor EP3 subtype (Homo sapiens) (UniProt P43115); assay: Prostanoid EP3 Eurofins-Panlabs radioligand binding assay; set-up: ligand concentration 0.5 nM, non-specific ligand with concentration 10 µM Prostaglandin EŽ2 (PGE2), incubation time 60 min, incubation temperature 25 °C; settings: Compound concentration 10.0 uM
[24] = target: B2 bradykinin receptor (Homo sapiens) (UniProt P30411); settings: Compound concentration 10.0 uM

Measured: inhibition

Mitogen-activated protein kinase 3 (Homo sapiens), sequence (P27361 whole entry): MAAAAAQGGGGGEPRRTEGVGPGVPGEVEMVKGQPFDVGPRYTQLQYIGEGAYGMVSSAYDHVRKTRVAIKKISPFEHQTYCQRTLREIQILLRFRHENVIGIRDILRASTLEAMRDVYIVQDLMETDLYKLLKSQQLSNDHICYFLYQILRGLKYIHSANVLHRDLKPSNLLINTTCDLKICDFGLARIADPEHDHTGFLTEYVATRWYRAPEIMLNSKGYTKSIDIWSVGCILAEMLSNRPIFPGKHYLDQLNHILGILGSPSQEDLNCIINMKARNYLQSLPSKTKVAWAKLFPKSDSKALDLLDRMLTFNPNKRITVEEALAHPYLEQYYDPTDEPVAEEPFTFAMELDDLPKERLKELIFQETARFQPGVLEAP
Bone morphogenetic protein receptor type-1A (Homo sapiens), sequence (P36894 whole entry): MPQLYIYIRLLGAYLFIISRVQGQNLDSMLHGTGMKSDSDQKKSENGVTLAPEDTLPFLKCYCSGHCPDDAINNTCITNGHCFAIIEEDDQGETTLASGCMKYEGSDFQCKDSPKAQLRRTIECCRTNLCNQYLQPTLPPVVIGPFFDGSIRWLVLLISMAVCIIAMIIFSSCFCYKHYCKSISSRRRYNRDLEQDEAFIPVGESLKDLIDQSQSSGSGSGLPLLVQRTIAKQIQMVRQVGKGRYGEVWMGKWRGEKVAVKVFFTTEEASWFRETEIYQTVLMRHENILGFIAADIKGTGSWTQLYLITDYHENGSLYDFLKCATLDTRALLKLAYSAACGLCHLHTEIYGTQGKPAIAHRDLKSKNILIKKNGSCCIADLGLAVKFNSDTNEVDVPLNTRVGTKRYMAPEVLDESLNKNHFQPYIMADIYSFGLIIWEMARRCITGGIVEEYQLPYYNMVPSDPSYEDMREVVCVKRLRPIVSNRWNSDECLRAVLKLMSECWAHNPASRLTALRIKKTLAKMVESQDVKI
Tyrosine-protein kinase HCK (Homo sapiens), sequence (P08631 2-526 limits assumed): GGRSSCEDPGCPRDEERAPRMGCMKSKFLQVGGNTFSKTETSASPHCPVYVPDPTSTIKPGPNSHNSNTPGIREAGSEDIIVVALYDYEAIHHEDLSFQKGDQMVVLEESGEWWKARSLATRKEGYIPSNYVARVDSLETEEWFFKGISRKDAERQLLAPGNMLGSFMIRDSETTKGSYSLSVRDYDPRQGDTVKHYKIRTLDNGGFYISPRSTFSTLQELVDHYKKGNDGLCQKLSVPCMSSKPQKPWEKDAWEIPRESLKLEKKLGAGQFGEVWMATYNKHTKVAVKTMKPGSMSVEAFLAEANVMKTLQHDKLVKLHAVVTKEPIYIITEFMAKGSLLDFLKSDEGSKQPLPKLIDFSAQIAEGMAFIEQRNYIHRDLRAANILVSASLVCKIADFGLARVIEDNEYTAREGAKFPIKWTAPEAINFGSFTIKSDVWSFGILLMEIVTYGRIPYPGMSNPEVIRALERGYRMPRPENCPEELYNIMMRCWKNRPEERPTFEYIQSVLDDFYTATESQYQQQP
Corticotropin-releasing factor receptor 1 (Homo sapiens), sequence (P34998 whole entry): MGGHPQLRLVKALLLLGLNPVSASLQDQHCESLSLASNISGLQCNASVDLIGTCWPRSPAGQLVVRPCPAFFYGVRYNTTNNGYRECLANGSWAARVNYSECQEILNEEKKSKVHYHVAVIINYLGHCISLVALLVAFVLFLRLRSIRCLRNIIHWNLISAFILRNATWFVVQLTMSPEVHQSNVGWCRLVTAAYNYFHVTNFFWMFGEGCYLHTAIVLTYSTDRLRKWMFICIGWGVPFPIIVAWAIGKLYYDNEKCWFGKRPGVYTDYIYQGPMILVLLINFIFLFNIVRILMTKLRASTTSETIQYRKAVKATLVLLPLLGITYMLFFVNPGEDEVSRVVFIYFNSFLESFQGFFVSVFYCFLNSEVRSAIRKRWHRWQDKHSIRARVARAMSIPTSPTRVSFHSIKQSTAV
Insulin-like growth factor 1 receptor (Homo sapiens), sequence (P08069 31-736 limits assumed): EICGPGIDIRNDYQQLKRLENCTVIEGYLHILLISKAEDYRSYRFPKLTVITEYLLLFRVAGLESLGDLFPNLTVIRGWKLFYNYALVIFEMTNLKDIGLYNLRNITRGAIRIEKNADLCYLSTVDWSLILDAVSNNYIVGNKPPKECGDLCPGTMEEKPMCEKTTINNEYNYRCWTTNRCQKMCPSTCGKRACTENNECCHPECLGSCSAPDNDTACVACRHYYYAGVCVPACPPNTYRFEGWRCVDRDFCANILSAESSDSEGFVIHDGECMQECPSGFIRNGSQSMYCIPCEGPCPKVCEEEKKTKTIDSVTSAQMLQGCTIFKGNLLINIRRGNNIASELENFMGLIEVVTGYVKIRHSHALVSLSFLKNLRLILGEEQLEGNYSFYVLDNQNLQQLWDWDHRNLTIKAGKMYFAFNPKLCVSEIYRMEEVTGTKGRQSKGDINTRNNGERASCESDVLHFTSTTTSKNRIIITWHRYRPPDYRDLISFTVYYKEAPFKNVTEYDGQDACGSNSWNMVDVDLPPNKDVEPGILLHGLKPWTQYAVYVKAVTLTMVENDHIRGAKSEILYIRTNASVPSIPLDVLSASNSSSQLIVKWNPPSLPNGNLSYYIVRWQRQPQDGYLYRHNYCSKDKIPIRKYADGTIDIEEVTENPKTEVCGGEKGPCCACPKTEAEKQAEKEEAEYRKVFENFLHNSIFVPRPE
Insulin-like growth factor 1 receptor (Homo sapiens), sequence (P08069 741-1367 limits assumed): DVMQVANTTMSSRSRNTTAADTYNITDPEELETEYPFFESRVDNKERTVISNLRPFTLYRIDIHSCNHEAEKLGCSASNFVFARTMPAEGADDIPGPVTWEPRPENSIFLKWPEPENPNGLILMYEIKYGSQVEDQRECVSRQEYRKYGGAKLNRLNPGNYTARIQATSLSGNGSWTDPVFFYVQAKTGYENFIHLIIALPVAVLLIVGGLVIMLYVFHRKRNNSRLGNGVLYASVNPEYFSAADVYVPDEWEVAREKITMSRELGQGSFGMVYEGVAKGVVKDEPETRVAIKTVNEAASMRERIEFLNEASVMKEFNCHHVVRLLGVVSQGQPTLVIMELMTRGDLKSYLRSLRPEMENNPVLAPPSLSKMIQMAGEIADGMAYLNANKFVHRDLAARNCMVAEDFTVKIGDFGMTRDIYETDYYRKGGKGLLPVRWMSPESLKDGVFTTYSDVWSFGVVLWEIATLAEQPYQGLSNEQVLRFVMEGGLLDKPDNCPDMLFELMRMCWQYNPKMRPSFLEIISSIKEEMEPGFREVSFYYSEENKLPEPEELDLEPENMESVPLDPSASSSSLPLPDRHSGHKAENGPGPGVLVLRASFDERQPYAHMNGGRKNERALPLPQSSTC
Casein kinase I isoform gamma-1 (Homo sapiens), sequence (Q9HCP0 whole entry, looked up, canonical isoform): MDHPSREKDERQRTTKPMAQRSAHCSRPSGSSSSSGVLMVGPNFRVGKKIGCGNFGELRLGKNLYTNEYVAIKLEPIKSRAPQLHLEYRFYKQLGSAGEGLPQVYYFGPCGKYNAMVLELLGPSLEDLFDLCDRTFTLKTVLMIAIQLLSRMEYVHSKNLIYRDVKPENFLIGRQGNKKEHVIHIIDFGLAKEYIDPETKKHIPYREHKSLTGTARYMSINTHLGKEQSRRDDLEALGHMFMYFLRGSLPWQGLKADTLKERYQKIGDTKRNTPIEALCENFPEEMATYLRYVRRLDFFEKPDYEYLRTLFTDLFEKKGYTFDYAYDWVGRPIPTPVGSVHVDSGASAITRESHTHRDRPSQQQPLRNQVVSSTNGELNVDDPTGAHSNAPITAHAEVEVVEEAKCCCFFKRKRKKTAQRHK
B2 bradykinin receptor (Homo sapiens), sequence (P30411 whole entry): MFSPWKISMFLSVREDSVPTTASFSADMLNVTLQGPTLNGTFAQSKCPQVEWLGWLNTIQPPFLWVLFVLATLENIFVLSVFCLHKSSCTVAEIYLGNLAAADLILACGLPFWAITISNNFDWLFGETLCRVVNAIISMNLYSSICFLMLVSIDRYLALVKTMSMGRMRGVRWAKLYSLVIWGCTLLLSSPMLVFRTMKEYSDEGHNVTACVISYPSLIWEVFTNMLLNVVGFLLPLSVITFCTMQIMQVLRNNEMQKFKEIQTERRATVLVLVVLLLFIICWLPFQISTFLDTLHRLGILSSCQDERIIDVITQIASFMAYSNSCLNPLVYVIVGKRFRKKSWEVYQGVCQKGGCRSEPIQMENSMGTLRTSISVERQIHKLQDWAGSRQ
Receptor-type tyrosine-protein kinase FLT3 (Homo sapiens), sequence (P36888 whole entry): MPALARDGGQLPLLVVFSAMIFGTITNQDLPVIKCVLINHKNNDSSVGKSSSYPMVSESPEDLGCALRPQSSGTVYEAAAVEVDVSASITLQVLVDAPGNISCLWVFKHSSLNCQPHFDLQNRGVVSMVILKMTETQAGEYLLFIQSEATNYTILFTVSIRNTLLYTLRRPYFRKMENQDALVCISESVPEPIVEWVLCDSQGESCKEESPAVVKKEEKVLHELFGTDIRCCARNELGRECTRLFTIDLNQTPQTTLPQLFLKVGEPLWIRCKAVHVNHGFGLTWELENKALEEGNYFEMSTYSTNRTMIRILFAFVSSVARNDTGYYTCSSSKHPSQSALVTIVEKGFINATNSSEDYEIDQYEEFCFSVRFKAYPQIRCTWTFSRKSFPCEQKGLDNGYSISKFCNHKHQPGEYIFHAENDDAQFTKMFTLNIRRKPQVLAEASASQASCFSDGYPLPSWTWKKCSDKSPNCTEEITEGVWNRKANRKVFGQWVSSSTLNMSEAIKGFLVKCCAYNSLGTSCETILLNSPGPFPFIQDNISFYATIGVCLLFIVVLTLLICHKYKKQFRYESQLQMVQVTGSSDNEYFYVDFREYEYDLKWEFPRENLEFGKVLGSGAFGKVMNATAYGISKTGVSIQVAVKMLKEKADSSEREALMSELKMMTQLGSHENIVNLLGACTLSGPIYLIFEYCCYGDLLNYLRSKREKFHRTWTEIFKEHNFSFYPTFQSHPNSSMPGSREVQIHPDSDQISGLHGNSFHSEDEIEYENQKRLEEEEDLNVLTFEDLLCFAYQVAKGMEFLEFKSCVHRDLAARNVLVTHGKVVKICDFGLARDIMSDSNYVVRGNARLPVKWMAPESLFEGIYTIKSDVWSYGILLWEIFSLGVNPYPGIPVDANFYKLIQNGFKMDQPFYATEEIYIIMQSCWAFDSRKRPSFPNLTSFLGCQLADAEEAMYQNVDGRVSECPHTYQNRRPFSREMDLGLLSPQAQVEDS

C[C@@H]1CN(c2cc(-c3n[nH]c4ccc(OC5(C)CC5)cc34)ncn2)C[C@H](C)O1 [MLi-2]
inactive: [1] 18% | [2] 33% | [3] -4% | [4] 3% | [5] 3% | [6] -1.21% | [7] 0.759% | [8] 17.4% | [9] 0.974% | [10] -1.82% | [11] -2.46% | [12] 9.38% | [13] 2.53% | [14] 0.0771% | [15] 7.67% | [16] 1.96% | [17] 6.92% | [18] 2.48% | [19] -2.27% | [20] -2.1% | [21] 2.36% | [22] 6% | [23] -4% | [24] 7%
